Key:
Experiment in all cases: Kinase selectivity, Z'-LYTE
Assay type in all cases: biochemical
ABL1 = target: T1, ABL1 (Homo sapiens, UniProt P00519)
T1 construct: purchased Invitrogen (Life Technologies) SelectScreen Z'-LYTE
Description: (§1) Kinase selectivity was assessed using a commercial service that employs a fluorescence-based, coupled-enzyme assay based on the differential sensitivity of phosphorylated and non-phosphorylated peptides to proteolytic cleavage (Invitrogen, Z'-LYTE®). This assay uses recombinant protein kinases and assay mixed optimized for each particular kinase (http://www.lifetechnologies.com/us/en/home/life-science/drug-discovery/target-and-lead-identification-and-validation /kinasebiology/kinase-activity-assays/z-lyte.html).

ACVR1B (ALK4) = target: T2, ACVR1B (ALK4) (Homo sapiens, UniProt P36896)
T2 construct: purchased Invitrogen (Life Technologies) SelectScreen Z'-LYTE
T2 sequence (P36896 24-505): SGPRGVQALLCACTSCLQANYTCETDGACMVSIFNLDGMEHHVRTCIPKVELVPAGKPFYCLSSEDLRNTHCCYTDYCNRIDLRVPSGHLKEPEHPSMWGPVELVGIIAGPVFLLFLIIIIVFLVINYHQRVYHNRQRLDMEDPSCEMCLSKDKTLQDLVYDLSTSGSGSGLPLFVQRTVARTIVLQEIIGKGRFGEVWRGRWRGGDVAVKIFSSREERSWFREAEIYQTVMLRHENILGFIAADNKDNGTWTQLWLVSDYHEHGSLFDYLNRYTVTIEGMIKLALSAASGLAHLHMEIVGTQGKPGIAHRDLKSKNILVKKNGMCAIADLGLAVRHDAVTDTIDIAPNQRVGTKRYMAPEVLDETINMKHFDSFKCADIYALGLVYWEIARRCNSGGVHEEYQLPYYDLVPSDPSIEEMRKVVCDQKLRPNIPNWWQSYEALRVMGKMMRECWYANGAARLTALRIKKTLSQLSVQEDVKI
Description: as §1

ADRBK2 (GRK3) = target: T3, ADRBK2 (GRK3) (Homo sapiens, UniProt P35626)
T3 construct: purchased Invitrogen (Life Technologies) SelectScreen Z'-LYTE
T3 sequence (P35626 1-688): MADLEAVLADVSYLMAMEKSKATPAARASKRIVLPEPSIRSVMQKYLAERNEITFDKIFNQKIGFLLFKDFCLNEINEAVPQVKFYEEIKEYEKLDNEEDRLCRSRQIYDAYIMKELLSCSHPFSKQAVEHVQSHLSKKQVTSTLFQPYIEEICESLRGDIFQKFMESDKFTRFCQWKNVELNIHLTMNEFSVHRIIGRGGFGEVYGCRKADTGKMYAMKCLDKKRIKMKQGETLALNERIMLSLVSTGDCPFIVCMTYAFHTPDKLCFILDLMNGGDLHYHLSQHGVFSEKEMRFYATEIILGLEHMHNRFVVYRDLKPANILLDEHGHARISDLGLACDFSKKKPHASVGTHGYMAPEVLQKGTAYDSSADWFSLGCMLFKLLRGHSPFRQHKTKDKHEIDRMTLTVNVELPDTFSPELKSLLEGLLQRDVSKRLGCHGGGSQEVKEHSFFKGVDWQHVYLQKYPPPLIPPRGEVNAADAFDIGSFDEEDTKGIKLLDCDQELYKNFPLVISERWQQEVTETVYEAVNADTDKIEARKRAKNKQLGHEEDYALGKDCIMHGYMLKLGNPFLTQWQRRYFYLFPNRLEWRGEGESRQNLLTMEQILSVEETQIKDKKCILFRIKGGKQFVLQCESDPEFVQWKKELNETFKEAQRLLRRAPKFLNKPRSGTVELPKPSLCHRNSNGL
Description: as §1

AXL = target: T4, AXL (Homo sapiens, UniProt P30530)
T4 construct: purchased Invitrogen (Life Technologies) SelectScreen Z'-LYTE
T4 sequence (P30530 26-894): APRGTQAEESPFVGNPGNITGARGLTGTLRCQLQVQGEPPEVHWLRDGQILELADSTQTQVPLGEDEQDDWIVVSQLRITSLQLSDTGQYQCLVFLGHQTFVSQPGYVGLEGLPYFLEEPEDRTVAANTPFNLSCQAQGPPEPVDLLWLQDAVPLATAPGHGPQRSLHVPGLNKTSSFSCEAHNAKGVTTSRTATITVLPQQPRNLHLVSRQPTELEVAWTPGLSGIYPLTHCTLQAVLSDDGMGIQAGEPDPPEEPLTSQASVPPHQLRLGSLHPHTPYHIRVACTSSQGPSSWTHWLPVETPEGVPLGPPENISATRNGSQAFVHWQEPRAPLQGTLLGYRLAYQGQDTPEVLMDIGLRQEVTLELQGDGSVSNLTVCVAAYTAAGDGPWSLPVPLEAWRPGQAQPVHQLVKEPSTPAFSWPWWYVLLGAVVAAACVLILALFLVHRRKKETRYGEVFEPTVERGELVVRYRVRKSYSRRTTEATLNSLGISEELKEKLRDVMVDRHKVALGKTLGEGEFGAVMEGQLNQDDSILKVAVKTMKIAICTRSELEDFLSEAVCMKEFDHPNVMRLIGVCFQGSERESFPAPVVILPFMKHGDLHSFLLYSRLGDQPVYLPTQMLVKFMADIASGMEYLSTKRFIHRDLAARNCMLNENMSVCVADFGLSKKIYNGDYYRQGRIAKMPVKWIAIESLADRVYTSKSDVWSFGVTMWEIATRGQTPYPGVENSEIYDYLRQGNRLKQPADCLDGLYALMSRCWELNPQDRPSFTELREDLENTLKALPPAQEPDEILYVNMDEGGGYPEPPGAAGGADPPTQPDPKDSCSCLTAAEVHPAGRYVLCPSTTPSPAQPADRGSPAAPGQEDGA
Description: as §1

CDK5/p35 = target: T5, CDK5/p35 (Homo sapiens, UniProt Q00535)
T5 construct: purchased Invitrogen (Life Technologies) SelectScreen Z'-LYTE
Description: as §1

G3K3A (G3K3 alpha) = target: T6, G3K3A (G3K3 alpha) (Homo sapiens, UniProt P49840)
T6 construct: purchased Invitrogen (Life Technologies) SelectScreen Z'-LYTE
Description: as §1

IGF1R = target: T7, IGF1R (Homo sapiens, UniProt P08069)
T7 construct: purchased Invitrogen (Life Technologies) SelectScreen Z'-LYTE
Description: as §1

MAP2K1 (MEK1) = target: T8, MAP2K1 (MEK1) (Homo sapiens, UniProt Q02750)
T8 construct: purchased Invitrogen (Life Technologies) SelectScreen Z'-LYTE
Description: as §1

[1] = target: T9, P1K3CA/PIK3R1 (p110 alpha) (Homo sapiens, UniProt P42336)
T9 construct: purchased Invitrogen (Life Technologies) SelectScreen Z'-LYTE
Description: as §1

PRKACA (PKA) = target: T10, PRKACA (PKA) (Homo sapiens, UniProt P17612)
T10 construct: purchased Invitrogen (Life Technologies) SelectScreen Z'-LYTE
Description: as §1

ROCK1 = target: T11, ROCK1 (Homo sapiens, UniProt Q13464)
T11 construct: purchased Invitrogen (Life Technologies) SelectScreen Z'-LYTE
Description: as §1

SRC = target: T12, SRC (Homo sapiens, UniProt P12931)
T12 construct: purchased Invitrogen (Life Technologies) SelectScreen Z'-LYTE
Description: as §1

T7 sequence (P08069 31-1367): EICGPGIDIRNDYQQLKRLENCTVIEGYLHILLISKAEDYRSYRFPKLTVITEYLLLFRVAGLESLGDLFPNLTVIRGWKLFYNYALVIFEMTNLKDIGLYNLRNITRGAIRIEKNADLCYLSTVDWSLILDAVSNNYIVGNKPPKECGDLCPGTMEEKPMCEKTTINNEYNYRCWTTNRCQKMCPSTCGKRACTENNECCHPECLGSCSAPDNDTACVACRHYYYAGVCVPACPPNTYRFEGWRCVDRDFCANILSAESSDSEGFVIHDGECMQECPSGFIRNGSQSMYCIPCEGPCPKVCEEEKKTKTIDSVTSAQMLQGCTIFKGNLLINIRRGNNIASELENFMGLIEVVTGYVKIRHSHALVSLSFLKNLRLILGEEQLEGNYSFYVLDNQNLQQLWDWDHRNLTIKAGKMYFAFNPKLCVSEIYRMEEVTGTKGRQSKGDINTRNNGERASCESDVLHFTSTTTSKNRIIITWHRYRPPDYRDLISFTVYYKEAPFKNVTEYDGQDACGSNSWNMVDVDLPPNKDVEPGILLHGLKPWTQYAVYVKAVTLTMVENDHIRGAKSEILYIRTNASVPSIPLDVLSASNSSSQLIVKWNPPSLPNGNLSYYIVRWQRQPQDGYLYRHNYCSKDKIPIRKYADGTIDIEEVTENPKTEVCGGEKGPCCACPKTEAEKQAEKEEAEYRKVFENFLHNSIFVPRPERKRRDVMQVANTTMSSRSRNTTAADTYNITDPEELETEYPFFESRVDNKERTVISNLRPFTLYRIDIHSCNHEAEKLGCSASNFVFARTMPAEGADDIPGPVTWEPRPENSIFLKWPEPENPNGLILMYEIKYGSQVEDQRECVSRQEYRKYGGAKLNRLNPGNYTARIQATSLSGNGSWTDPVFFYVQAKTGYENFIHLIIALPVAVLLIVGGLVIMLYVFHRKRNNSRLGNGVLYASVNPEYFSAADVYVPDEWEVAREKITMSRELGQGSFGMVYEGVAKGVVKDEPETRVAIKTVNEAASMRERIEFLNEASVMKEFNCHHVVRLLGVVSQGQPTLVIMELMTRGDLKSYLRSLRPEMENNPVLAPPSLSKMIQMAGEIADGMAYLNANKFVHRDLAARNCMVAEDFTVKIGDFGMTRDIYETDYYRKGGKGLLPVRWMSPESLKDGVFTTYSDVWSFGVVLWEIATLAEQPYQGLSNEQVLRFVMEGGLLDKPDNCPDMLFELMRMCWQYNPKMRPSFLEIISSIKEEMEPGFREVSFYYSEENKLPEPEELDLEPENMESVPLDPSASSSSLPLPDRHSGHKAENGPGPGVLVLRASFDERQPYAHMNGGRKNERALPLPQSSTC
T1 sequence (P00519 whole entry): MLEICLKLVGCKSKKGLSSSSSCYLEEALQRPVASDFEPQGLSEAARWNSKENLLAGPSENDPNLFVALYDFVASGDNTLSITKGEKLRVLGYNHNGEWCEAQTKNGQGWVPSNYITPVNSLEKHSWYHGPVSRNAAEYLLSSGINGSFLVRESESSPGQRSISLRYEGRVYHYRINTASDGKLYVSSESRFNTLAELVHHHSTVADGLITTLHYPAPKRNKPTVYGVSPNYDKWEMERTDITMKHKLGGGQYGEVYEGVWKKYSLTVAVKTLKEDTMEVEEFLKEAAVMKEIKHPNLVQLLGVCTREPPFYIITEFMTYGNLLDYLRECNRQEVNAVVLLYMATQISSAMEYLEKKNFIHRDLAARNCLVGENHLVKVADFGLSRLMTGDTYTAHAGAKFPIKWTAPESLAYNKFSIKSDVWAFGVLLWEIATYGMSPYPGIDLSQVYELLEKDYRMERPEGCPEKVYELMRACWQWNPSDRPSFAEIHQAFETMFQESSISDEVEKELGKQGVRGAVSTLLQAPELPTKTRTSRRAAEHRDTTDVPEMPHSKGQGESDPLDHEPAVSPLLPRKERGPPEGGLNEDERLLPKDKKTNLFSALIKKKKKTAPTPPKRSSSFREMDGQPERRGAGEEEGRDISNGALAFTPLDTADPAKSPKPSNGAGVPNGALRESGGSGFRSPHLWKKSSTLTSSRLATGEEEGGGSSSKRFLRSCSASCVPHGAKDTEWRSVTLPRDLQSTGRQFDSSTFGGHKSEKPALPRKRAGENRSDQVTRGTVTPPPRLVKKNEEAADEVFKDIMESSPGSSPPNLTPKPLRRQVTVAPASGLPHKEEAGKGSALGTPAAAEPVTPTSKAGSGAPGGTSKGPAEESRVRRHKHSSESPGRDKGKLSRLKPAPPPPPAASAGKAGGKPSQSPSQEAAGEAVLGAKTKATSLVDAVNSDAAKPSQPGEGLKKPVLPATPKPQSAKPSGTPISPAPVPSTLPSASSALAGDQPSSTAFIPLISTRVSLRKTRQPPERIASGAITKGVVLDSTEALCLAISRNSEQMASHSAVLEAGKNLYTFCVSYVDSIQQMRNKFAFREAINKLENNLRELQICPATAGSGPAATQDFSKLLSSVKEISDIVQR
T8 sequence (Q02750 whole entry): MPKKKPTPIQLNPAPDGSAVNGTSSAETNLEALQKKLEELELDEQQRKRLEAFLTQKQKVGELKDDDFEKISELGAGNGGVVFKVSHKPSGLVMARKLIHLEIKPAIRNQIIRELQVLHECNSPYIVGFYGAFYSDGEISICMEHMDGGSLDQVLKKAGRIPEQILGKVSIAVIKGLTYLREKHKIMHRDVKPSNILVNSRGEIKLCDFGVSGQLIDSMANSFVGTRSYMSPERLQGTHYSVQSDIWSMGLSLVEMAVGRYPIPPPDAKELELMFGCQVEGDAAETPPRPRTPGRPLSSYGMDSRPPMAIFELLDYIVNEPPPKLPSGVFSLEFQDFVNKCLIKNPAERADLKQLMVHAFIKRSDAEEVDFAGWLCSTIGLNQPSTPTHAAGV
T6 sequence (P49840 whole entry): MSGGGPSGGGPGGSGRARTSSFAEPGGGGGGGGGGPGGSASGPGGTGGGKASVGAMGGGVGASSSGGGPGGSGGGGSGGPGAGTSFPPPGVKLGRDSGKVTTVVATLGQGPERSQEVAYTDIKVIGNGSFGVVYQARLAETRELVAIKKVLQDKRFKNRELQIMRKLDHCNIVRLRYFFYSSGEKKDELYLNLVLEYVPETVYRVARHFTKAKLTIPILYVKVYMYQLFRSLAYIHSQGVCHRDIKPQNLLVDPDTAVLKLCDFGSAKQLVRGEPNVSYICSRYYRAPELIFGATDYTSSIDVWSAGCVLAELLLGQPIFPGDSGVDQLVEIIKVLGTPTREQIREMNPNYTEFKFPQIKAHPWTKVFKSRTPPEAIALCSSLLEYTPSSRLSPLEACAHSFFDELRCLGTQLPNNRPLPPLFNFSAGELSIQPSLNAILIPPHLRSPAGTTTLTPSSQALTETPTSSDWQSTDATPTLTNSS
T11 sequence (Q13464 whole entry): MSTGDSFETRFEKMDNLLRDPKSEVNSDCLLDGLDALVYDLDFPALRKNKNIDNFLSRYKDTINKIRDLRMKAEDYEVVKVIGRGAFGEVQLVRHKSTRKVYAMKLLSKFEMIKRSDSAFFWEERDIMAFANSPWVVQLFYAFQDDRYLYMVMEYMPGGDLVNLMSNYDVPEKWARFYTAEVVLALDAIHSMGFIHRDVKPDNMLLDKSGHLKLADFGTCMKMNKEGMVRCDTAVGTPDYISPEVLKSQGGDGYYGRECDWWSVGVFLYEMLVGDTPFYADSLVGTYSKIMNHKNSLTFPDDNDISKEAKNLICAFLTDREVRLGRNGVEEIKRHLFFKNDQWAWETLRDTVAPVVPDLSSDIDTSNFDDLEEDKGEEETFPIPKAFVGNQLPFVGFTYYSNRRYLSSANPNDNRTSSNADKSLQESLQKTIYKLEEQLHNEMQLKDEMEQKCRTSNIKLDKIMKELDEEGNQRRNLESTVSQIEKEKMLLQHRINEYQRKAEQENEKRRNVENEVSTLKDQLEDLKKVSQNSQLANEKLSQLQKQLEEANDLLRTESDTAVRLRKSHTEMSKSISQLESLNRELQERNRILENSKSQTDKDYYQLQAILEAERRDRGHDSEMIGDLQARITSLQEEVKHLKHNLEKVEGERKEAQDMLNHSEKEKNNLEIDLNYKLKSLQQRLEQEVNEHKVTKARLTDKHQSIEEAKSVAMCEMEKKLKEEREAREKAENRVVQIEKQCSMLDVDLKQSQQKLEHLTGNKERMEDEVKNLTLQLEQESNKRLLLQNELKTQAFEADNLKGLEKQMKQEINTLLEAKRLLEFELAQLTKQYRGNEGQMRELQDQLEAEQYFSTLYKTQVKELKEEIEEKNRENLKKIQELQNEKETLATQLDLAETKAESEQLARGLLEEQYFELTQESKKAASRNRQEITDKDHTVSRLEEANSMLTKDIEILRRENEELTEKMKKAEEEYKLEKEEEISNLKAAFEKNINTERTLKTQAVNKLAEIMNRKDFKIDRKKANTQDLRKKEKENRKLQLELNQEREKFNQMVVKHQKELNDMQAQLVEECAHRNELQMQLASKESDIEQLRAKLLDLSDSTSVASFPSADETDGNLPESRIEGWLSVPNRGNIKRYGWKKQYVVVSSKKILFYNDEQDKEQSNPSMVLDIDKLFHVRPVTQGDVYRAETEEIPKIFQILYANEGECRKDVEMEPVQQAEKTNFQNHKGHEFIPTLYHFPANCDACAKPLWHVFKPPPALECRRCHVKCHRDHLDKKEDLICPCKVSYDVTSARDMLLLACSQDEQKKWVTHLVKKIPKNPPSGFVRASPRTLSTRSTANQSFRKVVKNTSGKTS

| SMILES | % inhibition of activity (ABL1) | % inhibition of activity (ACVR1B (ALK4)) | % inhibition of activity (ADRBK2 (GRK3)) | % inhibition of activity (AXL) | % inhibition of activity (CDK5/p35) | % inhibition of activity (G3K3A (G3K3 alpha)) | % inhibition of activity (IGF1R) | % inhibition of activity (MAP2K1 (MEK1)) | % inhibition of activity [1] | % inhibition of activity (PRKACA (PKA)) | % inhibition of activity (ROCK1) | % inhibition of activity (SRC) |
| --- | --- | --- | --- | --- | --- | --- | --- | --- | --- | --- | --- | --- |
| CCn1c(=O)c(-c2ccc(-c3noc(C)n3)cc2Cl)cc2cnc(Nc3ccc(C4CCN(C)CC4)cc3)nc21 [Frax716] | 93% | −9% | 2% | 45% | 2% | −9% | 23% | 48% | −1% | 7% | 2% | 97% |
| CCn1c(=O)c(-c2ccc(-c3cncc(C)n3)cc2Cl)cc2cnc(NCCC3CCN(C)CC3)nc21 [Frax1036] | 18% | 0% | −1% | 21% | 7% | 7% | 7% | 27% | 0% | 1% | −2% | 16% |
| Cc1nc(Nc2[nH]nc3c2CN(C(=O)N[C@H](CN(C)C)c2ccccc2)C3(C)C)c2sccc2n1 [PF3758309, reference compound] | 62% | 1% | 4% | 67% | 15% | 52% | 10% | 39% | 0% | 100% | 5% | 74% |
